Measured values taken from patent US20260374750A1, “LIGANDS SPECIFICALLY TARGETING VESICULAR GLUTAMATE TRANSPORTERS FOR SUPER-RESOLUTION IMAGING” (SORBONNE UNIVERSITÉ, priority 2021, published 2026).

Columns and labels:
striatum slices = experiment: Fluorescent labeling of striatum slices; format: cell-based, mouse; details: 25 μM, 1 h, 37 °C
Description: The compatibility of the fluorescent compounds of the invention was determined in brain slices from newborns mice, a study model with greater integrity than cell culture. Mice aged 4 to 7 days are decapitated. The brains are removed and then placed in Neurobasal™-A Medium (10888022, ThermoFisher Scientific) enriched with 2% B-27™ Plus (A3582801, ThermoFisher Scientific) and 1% (volume/volume) of a mixture of streptomycin (10 mg/mL)/penicillin (10,000 U/mL). The brains are cut into 500 μm thick slices (McIlwain Tissue Chopper, model TC752) then dissociated from each other. The slices corresponding to the striatum are selected and incubated for one hour in the medium in the presence of 25 μM of fluorescent ligand, or without fluorescent molecule for the controls. Incubations in the presence or absence of the reference VGLUT inhibitor were carried out.
The brain slices were incubated in the presence of each of the compounds according to the invention D04, C07, C05, B09, L8, YL151, G02, F11 (See reference correspondences in Table 1). FIG. 4 illustrates the quantification of fluorescence of striatum slices after incubation in the presence of fluorescent compounds of the invention. […] Acquisitions were carried out using a confocal microscope (×5 objective) and the average fluorescence intensity for each slice was quantified. […]

[1] = system: isolated rat cortex synaptic vesicles; experiment: Confocal and STED observation of isolated synaptic vesicles incubated with fluorescent ligand; details: control wells
Description: In view of the preliminary results which are obtained, isolated synaptic vesicles are a model of choice in determining the distribution of the transporters VAChT and VGLUT3 at the vesicular level. The major pitfall in the use of this model is the absence of a protocol of use and results regarding their compatibility with super-resolution microscopy. First, the observability of fluorescent labeling in the vesicles was tested, as well as the effect of STED super-resolution microscopy on this model.
The different manipulations were carried out on rat or mouse synaptic vesicles, coming from the striatum or the cortex.
Material and methods: In a manner similar to vesicular reuptake tests, the fluorescent compounds to be studied are diluted in sucrose buffer (TPS 0.32 M) so as to obtain 10 μM of compound in the final observation medium. […]
Isolated rat cortex synaptic vesicles are then incubated in the presence of ATP and the fluorescent ligand G02 at 37 °C then are observed by confocal microscopy as well as super-resolution microscopy (STED). In order to ensure that the observed labeling corresponds to the fluorescent ligands accumulated on the surface or inside the vesicles, control wells were analyzed. No fluorescent signal is detected in wells containing only isolated vesicles (without fluorescent ligand), or only the fluorescent compound (without vesicles).

[2] = system: glutamatergic synaptic vesicles (VGLUT1); experiment: Double labeling of isolated glutamatergic synaptic vesicles (VGLUT1 immunolabeling and fluorescent ligand); details: FIG. 7; confocal and STED
Description: Tests were performed in order to check the compatibility of the novel fluorescent ligands of the invention and a labeling by immunohistochemistry. Indeed, ultimately, combining a labeling of VAChT by immunohistochemistry and of VGLUT3 by a fluorescent ligand would allow obtaining more information on the distribution of these vesicular transporters in the striatum.
FIG. 7 illustrates the glutamatergic vesicular labeling by immunohistochemistry and the fluorescent ligand referenced G02 according to the invention. In particular, isolated glutamatergic synaptic vesicles were double labeled by immunolabeling of VGLUT1 (in red) and the fluorescent ligand G02 (in green). The observations were carried out using confocal microscopy and STED. […] In order to more accurately analyze the spot colocalization, it seems more appropriate to use lower and therefore more separated concentrations of vesicles.

Structure (SMILES)	difference between ester (F11) and acid (G02) labeling of slices (striatum slices)	precipitation in observation medium [1]	double labeling spots (compatibility with immunohistochemistry) [2]
CCOC(=O)c1cc2cc(C#Cc3ccc(-c4ccc(N)cc4)cc3)c(O)cc2oc1=O [F11, Ethyl-6-((4′-amino-[1,1′-biphenyl]-4-yl)ethynyl)-7-hydroxy-2-oxo-2H-chromene-3-carboxylate]	no significant difference between the compounds G02 and F11		
Nc1ccc(-c2ccc(C#Cc3cc4cc(C(=O)O)c(=O)oc4cc3O)cc2)cc1 [LSP17-1173, 6-((4′-amino-[1,1′-biphenyl]-4-yl)ethynyl)-7-hydroxy-2-oxo-2H-chromene-3-carboxylic Acid]	no significant difference between the compounds G02 and F11	does not precipitate in the observation medium	The obtained spots are clear and resolved
